From PubChem BioAssay (NCI) come the findings set out here.

Values joined by “and” are separate entries in the source; they are usually repeats but may differ in a detail not shown here. Equal entries are not always repeated.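 Assay format: 96-well plates, 48-hour exposure. GI50: concentration for 50% inhibition of growth. TGI denotes the concentration required for complete inhibition of growth.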

Common to all, as to assay: growth of human tumour cells (NCI), 48 h
The subject of assay [1] is SN12C renal.
Assay [2] concerns HOP-62 NSCLC.
Assay [3] concerns HCT-116 colon.
In assay [4] the test system is MOLT-4 leukemia.
In assay [5] the test system is A549 NSCLC.
For assay [6], the system named is A498 renal.
The subject of assay [7] is U251 CNS.
Assay [8] has as its system MDA-MB-435.
The test system of assay [9] is T-47D breast.
The subject of assay [10] is MALME-3M melanoma.

Turning to `C=C(C)[C@@H]1CCC[C@]2(C(=O)O)CC[C@]3(C)[C@@H](CC[C@@H]4[C@@]5(C)C/C(=C/c6ccncc6)C(=O)C(C)(C)[C@@H]5CC[C@]43C)[C@@H]12`, the GI50 was 3.71 µM in assay [1]; 2.78 µM in [2]; 1.36 µM in assay [3]; 2.07 µM in assay [4]; 1.72 µM in [5]; 1.62 µM in assay [6]. Moreover, the GI50 is 2.14 µM in assay [7], 2.6 µM in [8], 3.98 µM in assay [9] and 3.46 µM in assay [10]. Also, the TGI in [1] was more than 100 µM; in assay [2] it was 8.28 µM; in assay [3], 2.8 µM; in assay [4], more than 100 µM; in assay [5] it was 5.26 µM; in assay [6], 5.01 µM. The TGI in assay [7] was 7.38 µM; in [8] it was 6.88 µM; in assay [9] it was more than 100 µM; in [10], 23.2 µM.

Turning to `CN1c2ccccc2C(=O)Nc2cnc(Cl)nc21`, the TGI in assay [1], in [2], in assay [3], in assay [4], in assay [5] and in assay [6] was more than 100 µM in each case. Besides, the TGI in assay [7], in assay [8], in assay [9] and in assay [10] was more than 100 µM throughout.

`Cc1cc2c(cc1Cl)SC1=NN(C)C(c3ccccc3O)N1S2(=O)=O` (stereo not given): the GI50 was 58.7 µM in assay [1]; 88.5 µM in assay [2]; 44.1 µM in assay [3]; more than 100 µM in assay [4]; 86.2 µM in [5]; more than 100 µM in assay [6]. In addition, the GI50 in assay [7] is 47.7 µM; in [8], more than 100 µM; in assay [9], more than 100 µM; in assay [10], more than 100 µM. For the same molecule, the TGI in [1], in assay [2], in assay [3], in assay [4], in assay [5] and in assay [6] was more than 100 µM in each case. Further, the TGI in [7], in assay [8], in [9] and in [10] was more than 100 µM each time.

As to `O=[N+]([O-])O.[NH-]C1CCCCC1[NH-].[NH-]C1CCCCC1[NH-].[NH-]C1CCCCC1[NH-].[OH-].[OH-].[OH-].[Pt+4].[Pt+4].[Pt+4]` (stereo not given), the GI50 was 0.126 µM in assay [1]; 2.23 µM in assay [2]; 0.0709 µM in [3]; 0.0283 µM in assay [4]; 0.319 µM in assay [5]; 0.278 µM in assay [6]. The GI50 in [7] was 0.513 µM; in [8] it was 0.367 µM; in [9], 1.08 µM; in [10], 0.199 µM. Further, the TGI in [1] is 26.7 µM; in assay [2] it was more than 57.8 µM; in [4] it was 2.2 µM; in assay [5] it was 31.3 µM; in [6] it was 35.1 µM; in assay [7], 38.1 µM. For the same molecule, the results for the TGI in assay [8], in assay [9] and in [10] were 6.3 µM, more than 83.9 µM and 2.7 µM, respectively.

For `CCCCCCCCCCCCNC(=O)[C@H]1CSC(c2ccc(OC)c(F)c2)N1` (stereo not given in full), the GI50 is 0.841 µM in assay [1]; 0.273 µM in [2]; 0.421 µM in [3]; 0.214 µM in [4]; 1.89 µM in [5]; 1.78 µM in assay [6]. The GI50 was 1.89 µM in assay [7], 0.193 µM in assay [8], 1.75 µM in [9] and 1.78 µM in assay [10]. The TGI was 2.14 µM in assay [1]; 0.748 µM in assay [2]; 1.41 µM in [3]; 0.469 µM in assay [4]; 3.69 µM in [5]; 3.28 µM in assay [6]. Besides, the TGI was 3.66 µM in assay [7], 0.385 µM in assay [8], 3.66 µM in assay [9] and 3.24 µM in assay [10].

For `N#CC1(C#N)C2C=CC(C3CCC=C32)C1(C#N)C#N` (stereo not given), the TGI in [1] was more than 10 µM; in assay [2], more than 10 µM; in [3], more than 10 µM; in [4], 6.52 µM; in [5] it was more than 10 µM; in [6], more than 10 µM. Also, the TGI in assay [7] is more than 10 µM; in [8], more than 10 µM; in assay [9], more than 8.87 µM; in assay [10], 5.5 µM.

Take `Cc1cc(N)c2ccccc2[n+]1CCCCCCCCCC[n+]1c(C)cc(N)c2ccccc21`: the GI50 is 0.159 µM in [1]; 0.201 µM in assay [2]; 0.28 µM and 2 µM in assay [3]; 0.549 µM and 1.41 µM in assay [4]; 0.116 µM in [5]; 0.0691 µM in assay [6]. In addition, the GI50 in assay [7] is 0.145 µM and 1.15 µM; in assay [8], 0.245 µM; in assay [9] it was 0.0959 µM; in [10], 0.163 µM and 1.35 µM. Further, the TGI was > 14 µM and 7.39 µM and 16.7 µM in [1]; 2.8 µM and 9.51 µM in assay [2]; 1.38 µM and 3.23 µM and 4.08 µM in assay [4]; 6.88 µM and 50 µM in assay [5]; 1.05 µM and 1.94 µM and 6.52 µM in assay [7]; 0.926 µM and 3.18 µM in assay [8].

Regarding `COc1ccc(N=C2NN=C(c3c[nH]c4ccccc34)CS2)cc1OC`, the GI50 in [1] is 18.4 µM; in assay [2], 12.7 µM; in assay [3] it was 8.25 µM; in assay [4], 3.29 µM; in assay [5], 9.92 µM; in assay [6], 4.43 µM. For the same molecule, the GI50 in assay [7] is 6.38 µM; in [8], 1.3 µM; in assay [9], 5.04 µM; in assay [10], 15 µM. Also, the TGI in assay [1] is more than 100 µM; in assay [2], more than 84.1 µM; in [3], more than 100 µM; in [4] it was more than 100 µM; in assay [5] it was more than 53.1 µM; in assay [6] it was more than 61.3 µM. The TGI is more than 100 µM in [7], 4 µM in assay [8], more than 73.3 µM in assay [9] and more than 69.1 µM in assay [10].
